“Also recorded” adds a separate entry of the source.
Columns and labels:
Format in all cases: physicochemical
[1] = Stability of API at 40° C./75% RH (percent purity)
Text: (§1) Therefore the inventors of the present invention have tried to develop a stable formulation of API such that the API is protected and cannot absorb moisture.

[2] = Moisture absorption of API at 40° C./75% RH (water by KF)
Text: as §1

[3] = Sulfoxide impurity level over six months
Text: Further, one of the impurity (sulfoxide) which was being generated in API increases from 0.17% to 0.76% over a period of 6 months. […] Therefore stabilization of compositions containing compounds of formula (I) can be made by maintaining the microenvironmental pH of composition above 7 by using suitable alkalinizers. Use of a suitable antioxidant(s) and chelating agent(s) further stabilizes the formulation.

[4] = pH degradation of API in standard pH buffers (sulfoxide impurity at 0.3 RRT); conditions: different standard pH buffers, after 24 hours
Description: FIG. 1: Percentage of sulfoxide impurity level (0.3 RRT) at different pH after 24 hours.
When the pH was modulated by addition of alkalinizer(s) then sulfoxide impurity level in API is restricted.
About 1% w/v aqueous dispersion of tablets was used for pH measurement. pH degradation can be seen with API when kept in different standard pH buffers.

Percent Purity ([1]; 1 Month): 98.10%
Percent Purity ([1]; 2 Month): 97.93%
Percent Purity ([1]; 3 Month): 97.17%
Percent Purity ([1]; Initial): 98.48%
Water By KF ([2]; 1 Month): 1.17%
Water By KF ([2]; 2 Month): 2.32%
Water By KF ([2]; 3 Month): 2.57%
Water By KF ([2]; Initial): 0.62%
sulfoxide impurity level ([3]; after 6 months): 0.76%
sulfoxide impurity level ([3]; start of the six month period): 0.17%
Compound: CCO[C@@H](Cc1ccc(OCCn2c(C)ccc2-c2ccc(SC)cc2)cc1)C(=O)O [API, Saroglitazar Magnesium]
Percentage individual impurity at 0.3 RRT (Sulphoxide impurity) [4]: restricted; also recorded: decreases as the solution of pH increases above pH 7

Reference: patent US9610277B2, “Formula comprising a hypolipidemic agent” (Cadila Healthcare Limited, priority 2013, dated 2017)
